For 17 molecules, AC50 and EC50 results are on record in patent US20260055083A1, “APOL1 INHIBITORS AND METHODS OF USE” (Maze Therapeutics, Inc., priority 2022, published 2026).

Assay [1] deals with T1, APOL1 G2 (Homo sapiens, UniProt O14791, DEL388-389).
T1 construct: expressed in transfected cells; host or cells: HEK293/T-REx APOL1 G2 clone #2, doxycycline-inducible
T1 sequence (O14791 with tags, fused parts or gaps DEL388-389): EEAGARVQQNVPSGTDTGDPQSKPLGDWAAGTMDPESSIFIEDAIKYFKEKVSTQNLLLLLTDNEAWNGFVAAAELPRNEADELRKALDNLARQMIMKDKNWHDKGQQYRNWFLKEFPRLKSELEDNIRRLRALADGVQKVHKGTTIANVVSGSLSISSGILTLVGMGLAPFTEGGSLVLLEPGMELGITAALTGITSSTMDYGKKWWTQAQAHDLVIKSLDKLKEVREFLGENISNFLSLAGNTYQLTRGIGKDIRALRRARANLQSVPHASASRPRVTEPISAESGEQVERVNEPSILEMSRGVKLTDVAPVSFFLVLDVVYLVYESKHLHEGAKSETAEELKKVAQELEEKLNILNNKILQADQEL
Description: APOL1 G2 FLIPR calcium influx assay (HEK T-REx/GCaMP6f/APOL1 G2 K6.3 cells). The format is cell-based. Conditions: HEK293 clone expressing GCaMP6f, doxycycline-induced APOL1 G2; prevention of calcium influx; geometric mean of at least 2 assay runs. The essentials: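 HEK293 clone stably expressing GCaMP6f, APOL1 G2 induced with doxycycline for 6 h; compounds (duplicate 8-point dose response) preincubated 10 min at room temperature in Ca2+-free Tyrode's buffer, pH 7.4. Ca2+ added to 5 mM final, influx read on FLIPR; AC50 is geometric mean of ≥2 runs.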

For assay [2], the target named is T1, APOL1 G2. Description: APOL1 G2 HEK293 rescue of cell death caused by overexpression of APOL1 (CellTiter-Glo). The assay is classed as cell-based. Conditions: HEK293/T-REx APOL1 G2 clone #2, doxycycline induction, 17 hours, CellTiter-Glo luminescence; reversal of cell death; geometric mean of at least 2 assay runs. The essentials:
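Doxycycline (6 ng/mL)-induced HEK293/T-REx APOL1 G2 clone seeded at 5,000 cells/well with compound in duplicate 8-point 3-fold series (0.5% DMSO), 17 h at 37 °C. CellTiter-Glo luminescence; EC50 from four-parameter logistic fit, geometric mean of ≥2 runs.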
For orientation: Cellular ATP, detected with luciferase, serves as a proxy for viable cell number.

Broadly, the AC50 is the concentration giving half of the maximal activity seen. By EC50 is commonly meant the concentration that produces a half-maximal response. Turning to `C[C@@H]1C[C@H](COc2ccc(S(C)(=O)=O)nc2)CN1CC(O)c1cccc(C#N)c1` (single isomer, unassigned) [Compound 93, 3-[(1R or 1S)-1-hydroxy-2-[(2R,4S)-4-{[(6-methanesulfonylpyridin-3-yl)oxy]methyl}-2-methylpyrrolidin-1-yl]ethyl]benzonitrile], the AC50 at APOL1 G2 [1] was found to be 1250 nM. For the same molecule, at APOL1 G2 [2], the EC50 came to 1670 nM.

On to `C[C@@H]1C[C@H](COc2ccc(S(C)(=O)=O)nc2)CN1CC(O)c1cccc(C#N)c1` (single isomer, unassigned) [Compound 94, 3-[(1S or 1R)-1-hydroxy-2-[(2R,4S)-4-{[(6-methanesulfonylpyridin-3-yl)oxy]methyl}-2-methylpyrrolidin-1-yl]ethyl]benzonitrile], for which the AC50 on APOL1 G2 [1] was 614 nM. Besides, the EC50 at APOL1 G2 [2] worked out at 103 nM.

For `Cc1cc(OC[C@H]2C[C@@H](C)N(CC(O)c3cccc(C#N)c3)C2)cnc1S(C)(=O)=O` (single isomer, unassigned) [Compound 95, 3-[(1R or 1S)-1-hydroxy-2-[(2R,4S)-4-{[(6-methanesulfonyl-5-methylpyridin-3-yl)oxy]methyl}-2-methylpyrrolidin-1-yl]ethyl]benzonitrile], the AC50 at APOL1 G2 [1] stood at 1040 nM. Moreover, the EC50 on APOL1 G2 [2] is 1140 nM.

Turning to `Cc1cc(OC[C@H]2C[C@@H](C)N(CC(O)c3cccc(C#N)c3)C2)cnc1S(C)(=O)=O` (single isomer, unassigned) [Compound 96, 3-[(1S or 1R)-1-hydroxy-2-[(2R,4S)-4-{[(6-methanesulfonyl-5-methylpyridin-3-yl)oxy]methyl}-2-methylpyrrolidin-1-yl]ethyl]benzonitrile], the AC50 at APOL1 G2 [1] is 188 nM. For the same molecule, the EC50 at APOL1 G2 [2] was 27.7 nM.

For the molecule `CC(C(O)c1cc(Cl)cc(C#N)c1)N1C[C@@H](COc2ccc(S(C)(=O)=O)cc2)C[C@H]1C` (single isomer, unassigned) [Compound 97, 3-chloro-5-[(1S,2S or 1R,2R or 1R,2S or 1S,2R)-1-hydroxy-2-[(2R,4S)-4-[(4-methanesulfonylphenoxy)methyl]-2-methylpyrrolidin-1-yl]propyl]benzonitrile], at APOL1 G2 [1], the AC50 is 813 nM. Besides, at APOL1 G2 [2], the EC50 was 2100 nM.

Take `CC(C(O)c1cc(Cl)cc(C#N)c1)N1C[C@@H](COc2ccc(S(C)(=O)=O)cc2)C[C@H]1C` (single isomer, unassigned) [Compound 98, 3-chloro-5-[(1R,2S or 1S,2R or 1S,2S or 1R,2R)-1-hydroxy-2-[(2R,4S)-4-[(4-methanesulfonylphenoxy)methyl]-2-methylpyrrolidin-1-yl]propyl]benzonitrile]: the AC50 on APOL1 G2 [1] stood at 2840 nM. For the same molecule, the EC50 on APOL1 G2 [2] was > 10000 nM.

For the molecule `CC(C(O)c1cc(Cl)cc(C#N)c1)N1C[C@@H](COc2ccc(S(C)(=O)=O)cc2)C[C@H]1C` (single isomer, unassigned) [Compound 99, 3-chloro-5-[(1S,2R or 1R,2S or 1S,2S or 1R,2R)-1-hydroxy-2-[(2R,4S)-4-[(4-methanesulfonylphenoxy)methyl]-2-methylpyrrolidin-1-yl]propyl]benzonitrile], the AC50 at APOL1 G2 [1] amounted to 1690 nM. Moreover, at APOL1 G2 [2], the concentration giving a half-maximal response (EC50) was determined as 252 nM.

With `CC(C(O)c1cc(Cl)cc(C#N)c1)N1C[C@@H](COc2ccc(S(C)(=O)=O)cc2)[C@H](C)C1` (single isomer, unassigned) [Compound 100, 3-chloro-5-((1R,2S or 1S,2R)-1-hydroxy-2-((3S,4S)-3-methyl-4-((4-(methylsulfonyl)phenoxy)methyl)pyrrolidin-1-yl)propyl)benzonitrile], the AC50 on APOL1 G2 [1] is 575 nM. For the same molecule, at APOL1 G2 [2], the concentration for a half-maximal effect (EC50) came to 948 nM.

Regarding `CC(C(O)c1cc(Cl)cc(C#N)c1)N1C[C@@H](COc2ccc(S(C)(=O)=O)cc2)[C@H](C)C1` (single isomer, unassigned) [Compound 101, 3-chloro-5-((1S,2R or 1R,2S)-1-hydroxy-2-((3S,4S)-3-methyl-4-((4-(methylsulfonyl)phenoxy)methyl)pyrrolidin-1-yl)propyl)benzonitrile], the AC50 at APOL1 G2 [1] worked out at 765 nM. Moreover, at APOL1 G2 [2], the EC50 is > 10000 nM.

As for `CC(C(O)c1cc(Cl)cc(C#N)c1)N1C[C@@H](COc2ccc(S(C)(=O)=O)cc2)[C@H](C)C1` (single isomer, unassigned) [Compound 102, 3-chloro-5-((1R,2R or 1S,2S)-1-hydroxy-2-((3S,4S)-3-methyl-4-((4-(methylsulfonyl)phenoxy)methyl)pyrrolidin-1-yl)propyl)benzonitrile], the AC50 on APOL1 G2 [1] turned out to be 744 nM. Further, at APOL1 G2 [2], the EC50 is > 10000 nM.

For the molecule `CC(C(O)c1cc(Cl)cc(C#N)c1)N1C[C@@H](COc2ccc(S(C)(=O)=O)cc2)[C@H](C)C1` (single isomer, unassigned) [Compound 103, 3-chloro-5-((1S,2S or 1R,2R)-1-hydroxy-2-((3S,4S)-3-methyl-4-((4-(methylsulfonyl)phenoxy)methyl)pyrrolidin-1-yl)propyl)benzonitrile], the AC50 on APOL1 G2 [1] was determined as 905 nM. In addition, the EC50 on APOL1 G2 [2] is 655 nM.

`C[C@@H]1CN(CC(O)c2cccc(C#N)c2)C[C@H]1COc1ccc(S(C)(=O)=O)nc1` (single isomer, unassigned) [Compound 105, 3-[(1S or 1R)-1-hydroxy-2-[(3S,4S)-3-{[(6-methanesulfonylpyridin-3-yl)oxy]methyl}-4-methylpyrrolidin-1-yl]ethyl]benzonitrile]: the AC50 at APOL1 G2 [1] was > 10000 nM. The concentration giving a half-maximal response (EC50) at APOL1 G2 [2] was > 10000 nM.

With `C[C@@H]1CN(CC(O)c2cccc(C#N)c2)C[C@H]1COc1ccc(S(C)(=O)=O)nc1` (single isomer, unassigned) [Compound 106, 3-[(1R or 1S)-1-hydroxy-2-[(3S,4S)-3-{[(6-methanesulfonylpyridin-3-yl)oxy]methyl}-4-methylpyrrolidin-1-yl]ethyl]benzonitrile], at APOL1 G2 [1], the AC50 is > 10000 nM. In addition, the EC50 on APOL1 G2 [2] was > 10000 nM.

As to `C[C@@H]1CN(C(CO)Cc2cccc(Cl)c2)C[C@H]1COc1ccc(S(C)(=O)=O)cc1` (single isomer, unassigned) [Compound 116, (2R or 2S)-3-(3-chlorophenyl)-2-[(3S,4S)-3-[(4-methanesulfonylphenoxy)methyl]-4-methylpyrrolidin-1-yl]propan-1-ol], on APOL1 G2 [1], the AC50 is 1700 nM. Further, the EC50 on APOL1 G2 [2] is > 10000 nM.

Turning to `C[C@@H]1CN(C(CO)Cc2cccc(Cl)c2)C[C@H]1COc1ccc(S(C)(=O)=O)cc1` (single isomer, unassigned) [Compound 117, (2S or 2R)-3-(3-chlorophenyl)-2-[(3S,4S)-3-[(4-methanesulfonylphenoxy)methyl]-4-methylpyrrolidin-1-yl]propan-1-ol], the AC50 at APOL1 G2 [1] was 483 nM. In addition, the EC50 at APOL1 G2 [2] came to 755 nM.

`CS(=O)(=O)c1ccc(OC[C@@H]2CN(C(CO)Cc3cccc(Cl)c3)CCN2)cc1` (single isomer, unassigned) [Compound 118, (2R or 2S)-3-(3-chlorophenyl)-2-[(3S)-3-[(4-methanesulfonylphenoxy)methyl]piperazin-1-yl]propan-1-ol]: at APOL1 G2 [1], the AC50 amounted to 1250 nM. Besides, the EC50 on APOL1 G2 [2] is > 10000 nM.

Take `CS(=O)(=O)c1ccc(OC[C@@H]2CN(C(CO)Cc3cccc(Cl)c3)CCN2)cc1` (single isomer, unassigned) [Compound 119, (2S or 2R)-3-(3-chlorophenyl)-2-[(3S)-3-[(4-methanesulfonylphenoxy)methyl]piperazin-1-yl]propan-1-ol]: on APOL1 G2 [1], the AC50 came out at 2330 nM. Besides, the EC50 on APOL1 G2 [2] is 633 nM.
